Data as given in patent publication US6635641B2 (Agouron Pharmaceuticals, Inc., priority 2000, dated 2003).
Counter-ions that a name gives are not always drawn. Like-named read-outs stand apart in the source and are kept apart here.

Assays:
[1] = test system: human umbilical vein endothelial cells (HUVEC); experiment: HUVEC proliferation assay (VEGF-stimulated, MTT); format: cell-based; details: Homo sapiens
Summary of the method: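 Exponentially growing HUVEC (passage 3-4) were serum-starved 24 h in F12K + 1% FBS, given test compound (final DMSO 0.1%), then stimulated 1 h later with VEGF at 6 ng/ml final. Proliferation read after 72 h by 4 h MTT dye reduction, absorbance at 595.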

[2] = target: T1, phosphorylated VEGF-R2Δ50 (FLVK-P) (Homo sapiens, UniProt P35968, DEL940-989/E990V); experiment: VEGF-R2 coupled spectrophotometric assay, phosphorylated construct (FLVK-P); format: biochemical
T1 construct: VEGF-R2Δ50 contains residues 806-939 and 990-1171; made in house; host or cells: baculovirus/insect cells
T1 sequence (P35968 with tags, fused parts or gaps DEL940-989/E990V limits assumed): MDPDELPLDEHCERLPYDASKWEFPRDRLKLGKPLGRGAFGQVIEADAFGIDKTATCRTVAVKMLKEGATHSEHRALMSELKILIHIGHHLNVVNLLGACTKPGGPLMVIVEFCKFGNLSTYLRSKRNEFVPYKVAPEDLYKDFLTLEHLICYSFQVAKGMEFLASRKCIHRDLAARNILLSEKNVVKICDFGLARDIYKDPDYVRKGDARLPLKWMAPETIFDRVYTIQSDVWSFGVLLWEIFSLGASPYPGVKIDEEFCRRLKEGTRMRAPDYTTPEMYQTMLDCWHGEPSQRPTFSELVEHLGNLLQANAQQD
Summary of the method: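 Baculovirus-expressed VEGF-R2Δ50 (residues 806-939/990-1171, E990V), optionally autophosphorylated; ADP formation coupled via PK/LDH to NADH oxidation at 340 nm, pH 7.5 Hepes. FLVK-P: 1 mM ATP, 5.1 mM poly(E4Y1), 25 mM MgCl2; FLVK: 3 mM ATP, 20 mM poly(E4Y1), 60 mM MgCl2, 2 mM MnCl2. Ki from activity over compound concentrations.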

[3] = test system: lung cancer cells (line MV522); experiment: Cancer cell proliferation (MV522) assay (MTT); format: cell-based
Description: The protocol for assessing cellular proliferation in cancer cells is similar to that used for assessments in HUVEC cells. Two thousand lung cancer cells (line MV522, acquired from American Tissue Cultural Collection) were seeded in growth media (RPMI1640 medium supplemented with 2 mM glutamine and 10% FBS). Cells are allowed to attach for 1 day prior to addition of test agents and/or vehicles. Cells are treated simultaneously with the same test agents used in the HUVEC assay. Cellular proliferation is quantified by MTT dye reduction assay 72 hours after exposure to test agents. The total length of the assay is 4 days vs. 5 for HUVEC cells because MV522 cells are not exposed to starvation medium.

[4] = target: T2, unphosphorylated VEGF-R2Δ50 (FLVK) (Homo sapiens, UniProt P35968, DEL940-989/E990V); experiment: VEGF-R2 coupled spectrophotometric assay, unphosphorylated construct (FLVK); format: biochemical;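 also: Baculovirus-expressed cytosolic kinase domain, ADP formation linked via pyruvate kinase and lactate dehydrogenase to NADH oxidation, read as falling absorbance at 340 nm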
T2 construct: VEGF-R2Δ50 contains residues 806-939 and 990-1171; made in house; host or cells: baculovirus/insect cells
T2 sequence (P35968 with tags, fused parts or gaps DEL940-989/E990V limits assumed): as above

LCK tyrosine kinase = target: T3, LCK tyrosine kinase (Homo sapiens, UniProt P06239, C224D/P223M); experiment: LCK spectrophotometric assay; format: biochemical; details: for Ki: read-out: LCK-P Ki;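 as to all read-outs here: recombinant LCK kinase activity on poly(E4Y1), ADP formation coupled through PK/LDH to NADH oxidation, followed as absorbance loss at 340 nm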
T3 construct: starting from amino acid residue 223 to the end of the protein at residue 509; made in house; host or cells: insect cells
T3 sequence (P06239 223-509 P223M/C224D): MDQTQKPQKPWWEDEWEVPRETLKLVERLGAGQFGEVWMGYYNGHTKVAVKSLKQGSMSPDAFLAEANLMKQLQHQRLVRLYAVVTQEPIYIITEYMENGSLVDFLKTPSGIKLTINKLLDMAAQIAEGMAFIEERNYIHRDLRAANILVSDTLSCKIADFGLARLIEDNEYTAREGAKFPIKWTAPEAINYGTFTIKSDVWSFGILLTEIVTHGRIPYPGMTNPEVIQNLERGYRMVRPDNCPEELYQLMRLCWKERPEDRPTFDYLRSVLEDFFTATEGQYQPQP

[5] = target: T4, FGF-R1 intracellular kinase domain (Homo sapiens, UniProt P11362, C488A/C584S/L457V); experiment: FGF-R spectrophotometric assay; format: biochemical; details: for inhibition at 1 µM: read-out: FGF-P percent inhibition;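 as to all read-outs here: coupled PK/LDH enzyme assay: ADP from kinase phosphoryl transfer drives NADH oxidation, read as absorbance decrease at 340 nm, with 2 mM ATP and poly(E4Y1) substrate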
T4 construct: starting from the endogenous methionine residue 456 to glutamate 766; made in house; host or cells: baculovirus expression system
T4 sequence (P11362 456-766 L457V/C488A/C584S): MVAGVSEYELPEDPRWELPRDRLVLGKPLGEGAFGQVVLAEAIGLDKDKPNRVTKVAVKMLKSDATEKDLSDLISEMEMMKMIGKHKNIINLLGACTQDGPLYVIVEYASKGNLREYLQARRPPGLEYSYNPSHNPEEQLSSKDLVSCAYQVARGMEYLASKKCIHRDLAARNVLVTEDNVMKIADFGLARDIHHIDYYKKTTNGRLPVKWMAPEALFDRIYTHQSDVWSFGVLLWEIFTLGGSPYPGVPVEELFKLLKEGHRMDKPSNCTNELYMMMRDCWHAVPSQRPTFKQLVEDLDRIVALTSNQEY

[6] = read-out: LCK-P percent inhibition
[7] = HUVEC, with albumin, read-out: Huvec + Albumin IC50
[8] = HUVEC proliferation with albumin, read-out: Huvec + Albumin IC50
[9] = unphosphorylated VEGF-R2 construct
[10] = VEGF-stimulated HUVEC proliferation, read-out: HUVEC IC50

Row | Ki [2] | IC50 ([3]; MV522) | Ki [4] | inhibition at 1 µM (LCK tyrosine kinase; [6]) | inhibition at 1 µM [5] | SMILES | IC50 ([1]; HUVEC, read-out: HUVEC IC50) | also measured
1 | 32 nM | > 10 µM | 4.5 nM | – | – | Cc1cc(NC(=O)c2cccc(CSc3cnccn3)c2)ccc1C(C)C [Example A-3, N-(4-Isopropyl-3-methylphenyl)-3-[(pyrazin-2-yl)sulfanylmethyl]benzamide] | 240 nM | melting point: 69 to 73 °C
2 | 3.49 nM | 8.1 µM | – | 82% | 59% | Cc1ccc(C(=O)Nc2ccc(C(C)C)c(C)c2)cc1OCc1cncc2ccccc12 [Example K-11, N-(4-Isopropyl-3-methyl-phenyl)-4-methyl-3-(Isoquinolin-4-yl)methoxy-benzamide] | 37 nM | –
3 | 0.79 nM | > 10 µM | 0.1 nM | – | 77% | COc1ccc(Nc2cc(CCc3cccc(C(=O)Nc4ccc(C(C)C)c(C)c4)c3)[nH]n2)cn1 [Example G-4, N-(4-Isopropyl-3-methyl-phenyl)-3-{2-[5-(6-methoxypyridin-3-yl)amino-2H-pyrazol-3-yl]-ethyl}-benzamide] | 16 nM | Ki (LCK tyrosine kinase): 72 nM
4 | 1.46 nM | 10 µM | 1.6 nM | – | 79% | Cc1cc(NC(=O)c2cccc(OCc3cncc4ccccc34)c2)ccc1C(C)C [Example K-1, N-(4-Isopropyl-3-methyl-phenyl)-3-(Isoquinolin-4-yl)methoxy-benzamide] | 40 nM | IC50 [1, 7]: > 1000 nM; Ki (LCK tyrosine kinase): 59 nM
5 | 0.592 nM | > 10 µM | – | – | 81% | CNS(=O)(=O)c1ccc(Nc2cc(CCc3cccc(C(=O)Nc4ccc(C(C)C)c(C)c4)c3)[nH]n2)cc1 [Example G-1, N-(4-Isopropyl-3-methyl-phenyl)-3-{2-[5-(4-(methylsulfamoyl)phenylamino)-2H-pyrazol-3-yl]-ethyl}-benzamide] | 10 nM | IC50 [1, 7]: 435 nM; Ki (LCK tyrosine kinase): 90 nM
6 | 1.98 nM | 10 µM | – | – | 74% | COc1ccc(Nc2cc(CCc3cccc(C(=O)Nc4cnc(N(C)C)c(C(F)(F)F)c4)c3)[nH]n2)cn1 [Example G-6, N-(6-Dimethylamino-5-trifluoromethylpyridin-3-yl)-3-{2-[5-(6-methoxypyridin-3-yl)amino-2H-pyrazol-3-yl]ethyl}-benzamide] | 12 nM | IC50 [1, 7]: 59 nM; Ki (LCK tyrosine kinase): 65 nM
7 | 8.64 nM | > 10 µM | 1 nM | – | – | Cc1cc(NC(=O)c2cccc(CSc3ncnc4[nH]ncc34)c2)ccc1C(C)C [Example A-5, N-(4-Isopropyl-3-methylphenyl)-3-[(1H-pyrazolo[3,4-d]pyrimidin-4-yl)sulfanylmethyl]benzamide] | 270 nM | inhibition at 5 µM (LCK tyrosine kinase; @ 5 μM, read-out: LCK-P percent inhibition): 37%; melting point: 187 to 189 °C
8 | 2.96 nM | 4.7 µM | – | 48% | 70% | Cc1cc(NC(=O)c2ccc(Cl)c(OCc3cncc4ccccc34)c2)ccc1C(C)C [Example K-12, N-(4-Isopropyl-3-methyl-phenyl)-4-chloro-3-(Isoquinolin-4-yl)methoxy-benzamide] | 27 nM | –
9 | 111 nM | – | 25 nM | – | – | COc1cc(NC(=O)c2cccc(CSc3ncnc4[nH]ncc34)c2)cc(OC)c1OC [Example B-1, N-(3,4,5-Trimethoxyphenyl)-3-[(1H-pyrazolo[3,4-d]pyrimidin-4-yl)sulfanylmethyl]benzamide] | – | Ki ([5]; read-out: FGF-P Ki): 87 µM

Further lines, the molecule ahead of its results:

Row | SMILES | Ki [2] | IC50 ([3]; MV522) | Ki [4] | inhibition at 1 µM (LCK tyrosine kinase; [6]) | inhibition at 1 µM [5] | IC50 ([1]; HUVEC, read-out: HUVEC IC50) | also measured
10 | COc1ccc(Nc2cc(COc3cc(C(=O)Nc4ccc(-n5ccnc5)c(C(F)(F)F)c4)ccc3F)[nH]n2)cn1 [Example J-1, 4-Fluoro-N-[4-(imidazol-1-yl)-3-trifluoromethylphenyl]-3-[5-(6-methoxypyridin-3-yl)amino-2H-pyrazol-3-ylmethoxy]-benzamide] | – | – | 1.6 nM | 38% | 61% | 37 nM | –
11 | O=C(Nc1ccc(-n2cccn2)c(C(F)(F)F)c1)c1ccc(F)c(OCc2cccnc2)c1 [Example R-22, 4-Fluoro-N-(4-pyrazol-1-yl-3-trifluoromethyl-phenyl)-3-(pyridin-3-ylmethoxy)-benzamide] | – | – | – | 13% | 21% | – | IC50 [1, 7]: > 100 nM; inhibition at 0.05 µM ([4]; @ 50 nM, read-out: FLVK percent inhibition): 52%
12 | O=C(Nc1ccc(N2CCNCC2)c(C(F)(F)F)c1)c1ccc(F)c(OCc2cncc(-c3ccco3)c2)c1 [EE-1, 4-Fluoro-3-(5-furan-2-yl-pyridin-3-ylmethoxy)-N-(4-piperazin-1-yl-3-trifluoromethyl-phenyl)-benzamide dihydrochloride] | – | – | – | 53% | 32% | – | IC50 [1, 8]: 180 nM; Ki [4, 9]: 3.4 nM
13 | C/C=C/c1cc(COc2cc(C(=O)Nc3ccc(N4CCCC4)c(C(F)(F)F)c3)ccc2F)[nH]n1 [Example F-4, 4-Fluoro-3-[{5-((E)-1-propenyl)-2H-pyrazol-3-yl}methoxy]-N-[4-(pyrrolidin-1-yl)-3-trifluoromethylphenyl]benzamide] | – | 2.6 µM | – | 19% | 18% | 63 nM | –
14 | O=C(Nc1ccc(N2CCNCC2)c(C(F)(F)F)c1)c1ccc(F)c(OCc2cncc3ccccc23)c1 [Example R-15, 4-Fluoro-N-(4-piperazin-1-yl-3-trifluoromethyl-phenyl)-3-(isoquinolin-4-ylmethoxy)-benzamide] | – | 3.1 µM | 8.8 nM | 26% | 41% | 36 nM | IC50 [1, 7]: 130 nM
15 | COc1ccc(Nc2cc(CSc3cccc(NC(=O)c4ccc(O)c(C(C)(C)C)c4)c3)[nH]n2)cn1 [Example W-1, 3-t-Butyl-4-hydroxy-N-{3-[5-(6-methoxy-pyridin-3-ylamino)-2 H-pyrazol-3-ylmethylsulfanyl]-phenyl}-benzamide] | – | – | – | 88% | 67% | – | IC50 [1, 10]: 23 nM; Ki [4, 9]: 0.12 nM
16 | CC(=O)Nc1ccc(CCc2cccc(C(=O)Nc3ccc(N4CCNCC4)c(C(F)(F)F)c3)c2)cn1 [AA-1, 3-[2-(6-Acetylamino-pyridin-3-yl)-ethyl]-N-(4-piperazin-1-yl-3-trifluoromethylphenyl)-benzamide dihydrochloride] | – | – | – | 44% | 39% | – | IC50 [1, 8]: 25 nM; inhibition at 0.05 µM ([2]; @ 50 nM, read-out: FLVK-P percent inhibition): 59%; Ki [4, 9]: 2.8 nM
17 | O=C(Nc1cc(Cl)c(N2CCOCC2)c(Cl)c1)c1ccc(F)c(OCc2cccnc2)c1 [Example R-18, N-(3,5-Dichloro-4-morpholin-4-yl-phenyl)-4-fluoro-3-(pyridin-3-ylmethoxy)-benzamide] | – | > 10 µM | 3.1 nM | – | – | 18 nM | melting point: 209 to 211 °C
18 | O=C(Nc1cc(Cl)c(N2CCNCC2)c(Cl)c1)c1ccc(F)c(OCc2cccnc2)c1 [Example R-19, N-(3,5-Dichloro-4-piperazin-1-yl-phenyl)-4-fluoro-3-(pyridin-3-ylmethoxy)-benzamide] | – | 1.7 µM | 13.9 nM | – | – | 64 nM | melting point: 81 to 85 °C
19 | COc1cc(NC(=O)c2ccc(F)c(OCc3cc(Nc4ccc(OC)nc4)n[nH]3)c2)cc(C(F)(F)F)c1 [Example J-3, 4-Fluoro-3-[5-(6-methoxypyridin-3-yl)amino-2H-pyrazol-3-yl]methoxy-N-(3-methoxy-5-trifluoromethyl-phenyl)-benzamide] | – | – | 0.92 nM | 44% | 54% | 50 nM | –
20 | CC(=O)Oc1ccc(C(=O)Nc2cccc(OCc3cncc4ccccc34)c2)cc1C(C)(C)C [Example X-3, 4-Acetoxy-3-t-butyl-N-[3-(isoquinolin-4-ylmethoxy)phenyl]-benzamide] | – | – | – | – | – | – | IC50 [1, 10]: 30 to 100 nM; melting point: 83 to 86 °C; IC50 ([3]; MV522 lung cancer cells): 4.6 µM; Ki [4, 9]: 2.2 nM
